Data taken from patent US8772343B2, “Chemical compounds” (Pfizer Limited, priority 2010, dated 2014).
Counter-ions that a name gives are not always drawn.

molecular target: T1, Nav1.7 (or SCN9A) channel (Homo sapiens, UniProt Q15858); assay: Nav1.7 PatchXpress automated whole-cell electrophysiology in HEK cells expressing hSCN9A; assay type: cell-based; conditions: estimated IC50 from single point data, PatchXpress assay, held at V1/2 of inactivation, read-out: Nav1.7 EIC50
T1 construct: expressed in transfected cells
T1 sequence (Q15858 whole entry): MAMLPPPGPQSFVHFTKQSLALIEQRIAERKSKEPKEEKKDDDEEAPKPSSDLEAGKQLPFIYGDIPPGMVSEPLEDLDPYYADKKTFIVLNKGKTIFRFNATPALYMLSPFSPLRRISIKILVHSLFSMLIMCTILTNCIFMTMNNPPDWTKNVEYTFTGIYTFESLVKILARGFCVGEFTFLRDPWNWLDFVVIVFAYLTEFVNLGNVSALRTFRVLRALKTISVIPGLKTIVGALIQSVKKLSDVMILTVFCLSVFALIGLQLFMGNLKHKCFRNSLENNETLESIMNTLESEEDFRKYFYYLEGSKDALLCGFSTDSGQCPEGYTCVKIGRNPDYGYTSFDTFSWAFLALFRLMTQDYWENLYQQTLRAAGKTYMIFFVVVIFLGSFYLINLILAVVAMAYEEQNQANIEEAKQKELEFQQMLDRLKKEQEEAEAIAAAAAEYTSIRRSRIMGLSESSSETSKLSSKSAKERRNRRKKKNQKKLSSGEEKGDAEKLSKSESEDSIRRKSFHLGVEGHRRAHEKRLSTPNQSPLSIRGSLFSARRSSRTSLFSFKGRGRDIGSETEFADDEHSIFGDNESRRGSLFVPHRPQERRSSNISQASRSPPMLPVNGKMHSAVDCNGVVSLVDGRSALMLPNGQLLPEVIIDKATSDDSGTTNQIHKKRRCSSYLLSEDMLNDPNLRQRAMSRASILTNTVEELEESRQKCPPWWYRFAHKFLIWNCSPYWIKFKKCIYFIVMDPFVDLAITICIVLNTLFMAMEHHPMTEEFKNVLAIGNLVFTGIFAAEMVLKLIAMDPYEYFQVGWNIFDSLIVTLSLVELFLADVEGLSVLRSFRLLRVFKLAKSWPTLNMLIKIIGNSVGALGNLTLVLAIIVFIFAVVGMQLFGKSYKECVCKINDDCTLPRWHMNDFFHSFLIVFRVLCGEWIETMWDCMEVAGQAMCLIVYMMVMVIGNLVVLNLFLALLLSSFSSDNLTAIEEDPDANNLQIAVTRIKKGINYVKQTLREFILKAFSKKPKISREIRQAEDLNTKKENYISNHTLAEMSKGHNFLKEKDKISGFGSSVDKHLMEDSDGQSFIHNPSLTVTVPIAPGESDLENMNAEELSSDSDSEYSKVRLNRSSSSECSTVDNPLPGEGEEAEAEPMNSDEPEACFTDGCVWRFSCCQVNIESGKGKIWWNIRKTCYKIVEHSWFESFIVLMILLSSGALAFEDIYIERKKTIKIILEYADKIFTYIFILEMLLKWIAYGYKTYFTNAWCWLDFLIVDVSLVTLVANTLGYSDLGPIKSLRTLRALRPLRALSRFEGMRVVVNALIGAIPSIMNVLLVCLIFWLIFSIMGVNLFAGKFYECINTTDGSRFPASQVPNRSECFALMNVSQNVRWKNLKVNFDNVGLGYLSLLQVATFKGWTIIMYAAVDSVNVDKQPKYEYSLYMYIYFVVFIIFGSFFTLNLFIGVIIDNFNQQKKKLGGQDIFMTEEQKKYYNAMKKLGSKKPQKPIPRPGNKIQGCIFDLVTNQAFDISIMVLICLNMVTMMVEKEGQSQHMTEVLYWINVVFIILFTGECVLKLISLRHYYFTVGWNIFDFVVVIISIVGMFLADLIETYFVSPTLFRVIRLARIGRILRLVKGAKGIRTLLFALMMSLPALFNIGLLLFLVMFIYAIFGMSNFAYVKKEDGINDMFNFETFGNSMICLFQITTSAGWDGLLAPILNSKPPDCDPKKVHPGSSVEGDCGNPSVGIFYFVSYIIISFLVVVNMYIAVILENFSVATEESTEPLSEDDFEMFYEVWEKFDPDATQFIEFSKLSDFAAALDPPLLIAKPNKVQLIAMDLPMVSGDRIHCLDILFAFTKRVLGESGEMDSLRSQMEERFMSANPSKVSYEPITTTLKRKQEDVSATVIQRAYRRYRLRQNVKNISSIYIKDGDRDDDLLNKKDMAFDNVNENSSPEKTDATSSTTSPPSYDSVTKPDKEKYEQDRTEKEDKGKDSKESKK
Method: The ability of the compounds of formula (I) to block the Nav1.7 (or SCN9A) channel were measured using the assay described below.
Human Embryonic Kidney (HEK) cells were transfected with an hSCN9A construct using lipofectamine reagent (Invitrogen), using standard techniques. Cells stably expressing the hSCN9A constructs were identified by their resistance to G-418 (400 μg/ml). Clones were screened for expression using the whole-cell voltage-clamp technique.
HEK cells stably transfected with hSCN9A were maintained in DMEM medium supplemented with 10% heat-inactivated fetal bovine serum and 400 μg/ml G-418 in an incubator at 37° C. with a humidified atmosphere of 10% CO2. For HTS, cells were harvested from flasks by trypsinization and replated in an appropriate multi-well plate (typically 96 or 384 wells/plate) such that confluence would be achieved within 24 hours of plating. For electrophysiological studies, cells were removed from the culture flask by brief trypsinization and re-plated at low density onto glass cover slips. Cells were typically used for electrophysiological experiments within 24 to 72 hours after plating.
Cover slips containing HEK cells expressing hSCN9A were placed in a bath on the stage of an inverted microscope and perfused (approximately 1 ml/minutes) with extracellular solution of the following composition: 138 mM NaCl, 2 mM CaCl2, 5.4 mM KCl, 1 mM MgCl2, 10 mM glucose, and 10 mM HEPES, pH 7.4, with NaOH. […] The osmolarity of the extracellular and intracellular solutions was 300 mOsm/kg and 295 mOsm/kg, respectively. All recordings were made at room temperature (22-24° C.) using AXOPATCH 200B amplifiers and PCLAMP software (Axon Instruments, Burlingame, Calif.).
hSCN9A currents in HEK cells were measured using the whole-cell configuration of the patch-clamp technique (Hamill et al., 1981). Uncompensated series resistance was typically 2 to 5 mega ohms and >85% series resistance compensation was routinely achieved. As a result, voltage errors were negligible and no correction was applied. Current records were acquired at 20 to 50 KHz and filtered at 5 to 10 KHz.
HEK cells stably transfected with hSCN9A were viewed under Hoffman contrast optics and placed in front of an array of flow pipes emitting either control or compound-containing extracellular solutions. All compounds were dissolved in dimethyl sulfoxide to make 10 mM stock solutions, which were then diluted into extracellular solution to attain the final concentrations desired. […] The voltage-dependence of inactivation was determined by applying a series of depolarizing prepulses (8 sec long in 10 mV increments) from a negative holding potential. The voltage was then immediately stepped to 0 mV to assess the magnitude of the sodium current. Currents elicited at 0 mV were plotted as a function of prepulse potential to allow estimation of the voltage at which 50% of the channels were inactivated (midpoint of inactivation or V1/2). Compounds were tested for their ability to inhibit hSCN9A sodium channels by activating the channel with a 20 msec voltage step to 0 mV following an 8 second conditioning prepulse to the empirically determined V1/2. Compound effect (% inhibition) was determined by difference in current amplitude before and after application of test compounds. For ease of comparison, “estimated IC-50” (EIC50) values were calculated from single point electrophysiology data by the following equation, (tested concentration, uM)×(100-% inhibition/% inhibition). Inhibition values<20% and >80% were excluded from the calculation.
Electrophysiological assays were conducted with PatchXpress 7000 hardware and associated software (Molecular Devices Corp). All assay buffers and solutions were identical to those used in conventional whole-cell voltage clamp experiments described above. hSCN9A cells were grown as above to 50%-80% confluency and harvested by trypsinization. […]

Row | Compound | IC50
1 | COc1cc(Cl)ccc1Oc1ccc(C(=O)NS(C)(=O)=O)cc1-c1cccnc1OC [Example 1, 4-(4-chloro-2-methoxyphenoxy)-3-(2-methoxypyridin-3-yl)-N-(methylsulfonyl)benzamide diethylamine salt] | 2700 nM
2 | COc1ncccc1-c1cc(C(=O)NS(C)(=O)=O)ccc1Oc1ccc(OCC(C)C)nc1 [Example 2, 4-[(6-isobutoxypyridin-3-yl)oxy]-3-(2-methoxypyridin-3-yl)-N-(methylsulfonyl)benzamide diethylamine salt] | 220 nM
3 | COc1cccnc1-c1cc(C(=O)NS(C)(=O)=O)ccc1Oc1ccc(Cl)cc1 [Example 3, 4-(4-chlorophenoxy)-3-(3-methoxypyridin-2-yl)-N-(methylsulfonyl)benzamide] | 990 nM
4 | COc1cc(Cl)ccc1Oc1cc(F)c(C(=O)NS(C)(=O)=O)cc1-c1cccnc1OC [Example 4, 4-(4-chloro-2-methoxyphenoxy)-2-fluoro-5-(2-methoxypyridin-3-yl)-N-(methylsulfonyl)benzamide] | 4500 nM
5 | COc1ncccc1-c1cc(C(=O)NS(C)(=O)=O)ccc1Oc1ccccc1 [Example 5, 3-(2-methoxypyridin-3-yl)-N-(methylsulfonyl)-4-phenoxybenzamide] | 900 nM
6 | COc1ncccc1-c1cc(C(=O)NS(=O)(=O)C2CC2)ccc1Oc1ccccc1 [Example 6, N-(cyclopropylsulfonyl)-3-(2-methoxypyridin-3-yl)-4-phenoxybenzamide] | 1300 nM
7 | COc1ncccc1-c1cc(C(=O)NS(C)(=O)=O)ccc1Oc1cnc(OC(C)C)c(Cl)c1 [Example 7, 4-[(5-Chloro-6-isopropoxypyridin-3-yl)oxy]-3-(2-methoxypyridin-3-yl)-N-(methylsulfonyl)benzamide] | 66 nM
8 | CCOc1ncccc1-c1cc(C(=O)NS(C)(=O)=O)ccc1Oc1ccc(Cl)cc1 [Example 8, 4-(4-Chlorophenoxy)-3-(2-ethoxypyridin-3-yl)-N-(methylsulfonyl)benzamide] | 49 nM
9 | CS(=O)(=O)NC(=O)c1ccc(Oc2ccc(Cl)cc2)c(-c2ccc(F)cc2)c1 [Example 9, 6-(4-Chlorophenoxy)-4′-fluoro-N-(methylsulfonyl)biphenyl-3-carboxamide] | 110 nM
10 | CS(=O)(=O)NC(=O)c1ccc(Oc2ccc(Cl)cc2)c(-c2cc[nH]n2)c1 [Example 10, 4-(4-Chlorophenoxy)-N-(methylsulfonyl)-3-(1H-pyrazol-3-yl)benzamide] | 940 nM
11 | CCOc1ccc(-c2cc(C(=O)NS(C)(=O)=O)ccc2Oc2ccc(Cl)cc2)cc1 [Example 12, 6-(4-chlorophenoxy)-4′-ethoxy-N-(methylsulfonyl)-biphenyl-3-carboxamide] | 3500 nM
12 | Cc1n[nH]c(C)c1-c1cc(C(=O)NS(C)(=O)=O)ccc1Oc1ccc(Cl)cc1 [Example 14, 4-(4-chlorophenoxy)-3-(3,5-dimethyl-1H-pyrazol-4-yl)-N-(methylsulfonyl)benzamide] | > 3000 nM
13 | COc1ccccc1-c1cc(C(=O)NS(C)(=O)=O)ccc1Oc1ccc(Cl)cc1 [Example 15, 6-(4-chlorophenoxy)-2′-methoxy-N-(methylsulfonyl)-biphenyl-3-carboxamide] | 180 nM
14 | COc1ccc(-c2cc(C(=O)NS(C)(=O)=O)ccc2Oc2ccc(Cl)cc2)cn1 [Example 16, 4-(4-chlorophenoxy)-3-(6-methoxypyridin-3-yl)-N-(methylsulfonyl)benzamide] | 910 nM
15 | CS(=O)(=O)NC(=O)c1ccc(Oc2ccc(Cl)cc2)c(-c2ccccc2F)c1 [Example 18, 6-(4-chlorophenoxy)-2′-fluoro-N-(methylsulfonyl)-biphenyl-3-carboxamide] | 570 nM
16 | CCOc1cccc(-c2cc(C(=O)NS(C)(=O)=O)ccc2Oc2ccc(Cl)cc2)c1 [Example 20, 6-(4-chlorophenoxy)-3′-ethoxy-N-(methylsulfonyl)-biphenyl-3-carboxamide] | 820 nM

Row | Compound | IC50
17 | CS(=O)(=O)NC(=O)c1ccc(Oc2ccc(Cl)cc2)c(-c2ccncc2)c1 [Example 21, 4-(4-chlorophenoxy)-N-(methylsulfonyl)-3-pyridin-4-ylbenzamide] | 4600 nM
18 | CS(=O)(=O)NC(=O)c1ccc(Oc2ccc(Cl)cc2)c(-c2cncnc2)c1 [Example 23, 4-(4-chlorophenoxy)-N-(methylsulfonyl)-3-pyrimidin-5-ylbenzamide] | 2800 nM
19 | CS(=O)(=O)NC(=O)c1ccc(Oc2ccc(Cl)cc2)c(-c2ccccc2OC(F)(F)F)c1 [Example 24, 6-(4-chlorophenoxy)-N-(methylsulfonyl)-2′-(trifluoromethoxy)biphenyl-3-carboxamide] | 500 nM
20 | Cn1nccc1-c1cc(C(=O)NS(C)(=O)=O)ccc1Oc1ccc(Cl)cc1 [Example 27, 4-(4-chlorophenoxy)-3-(1-methyl-1H-pyrazol-5-yl)-N-(methylsulfonyl)benzamide] | > 3000 nM
21 | COc1cccc(-c2cc(C(=O)NS(C)(=O)=O)ccc2Oc2ccc(Cl)cc2)c1 [Example 29, 6-(4-chlorophenoxy)-3′-methoxy-N-(methylsulfonyl)-biphenyl-3-carboxamide] | 570 nM
22 | CS(=O)(=O)NC(=O)c1ccc(Oc2ccc(Cl)cc2)c(-c2ccccc2Cl)c1 [Example 31, 2′-chloro-6-(4-chlorophenoxy)-N-(methylsulfonyl)-biphenyl-3-carboxamide] | 270 nM
23 | CCOc1ccccc1-c1cc(C(=O)NS(C)(=O)=O)ccc1Oc1ccc(Cl)cc1 [Example 32, 6-(4-chlorophenoxy)-2′-ethoxy-N-(methylsulfonyl)-biphenyl-3-carboxamide] | 120 nM
24 | CS(=O)(=O)NC(=O)c1ccc(Oc2ccc(Cl)cc2)c(-c2ccccc2C#N)c1 [Example 33, 6-(4-chlorophenoxy)-2′-cyano-N-(methylsulfonyl)-biphenyl-3-carboxamide] | 290 nM
25 | Cc1cc(-c2cc(C(=O)NS(C)(=O)=O)ccc2Oc2ccc(Cl)cc2)ccn1 [Example 34, 4-(4-chlorophenoxy)-3-(2-methylpyridin-4-yl)-N-(methylsulfonyl)benzamide] | 8600 nM
26 | CS(=O)(=O)NC(=O)c1ccc(Oc2ccc(Cl)cc2)c(-c2ccccc2C(F)(F)F)c1 [Example 35, 6-(4-chlorophenoxy)-N-(methylsulfonyl)-2′-(trifluoromethyl)biphenyl-3-carboxamide] | 8000 nM
27 | COc1ncc(-c2cc(C(=O)NS(C)(=O)=O)ccc2Oc2ccc(Cl)cc2)cc1F [Example 36, 4-(4-chlorophenoxy)-3-(5-fluoro-6-methoxypyridin-3-yl)-N-(methylsulfonyl)benzamide] | 3900 nM
28 | CS(=O)(=O)NC(=O)c1ccc(Oc2ccc(Cl)cc2)c(-c2ccc(Cl)cn2)c1 [Example 37, 4-(4-chlorophenoxy)-3-(5-chloropyridin-2-yl)-N-(methylsulfonyl)benzamide] | 340 nM
29 | Cc1ccc(-c2cc(C(=O)NS(C)(=O)=O)ccc2Oc2ccc(Cl)cc2)cn1 [Example 38, 4-(4-chlorophenoxy)-3-(6-methylpyridin-3-yl)-N-(methylsulfonyl)benzamide] | > 3000 nM
30 | CS(=O)(=O)NC(=O)c1ccc(Oc2ccc(Cl)cc2)c(-c2ccc(C#N)nc2)c1 [Example 39, 4-(4-chlorophenoxy)-3-(6-cyanopyridin-3-yl)-N-(methylsulfonyl)benzamide] | 1100 nM
31 | CCCn1cc(-c2cc(C(=O)NS(C)(=O)=O)ccc2Oc2ccc(Cl)cc2)cn1 [Example 41, 4-(4-chlorophenoxy)-N-(methylsulfonyl)-3-(1-propyl-1H-pyrazol-4-yl)benzamide] | > 3000 nM
